We go through four molecules from US7361186B2, “Active body cooling with vasodilation to reduce body temperature” (priority 2003, dated 2008).

In series [1] the test system is healthy subjects. As to conditions: Phase 4.
Source text: (§1) Mild hypothermia is induced and maintained in healthy subjects for up to several hours. […] Each volunteer is cooled using contact-cooling pads (Arctic Sun Energy Transfer Pads™, Medivance, Inc., Louisville, Colo., U.S.A.). Contact-cooling pads are applied to contact the subjects, and water at a controlled temperature is delivered to and circulated through the contact pads to effect the controlled cooling of each volunteer.
For series [2], the system named is healthy subjects. As to conditions: Phase 6. The text has this: Mild hypothermia is induced and maintained in healthy subjects for up to several hours. Table 1 summarizes data concerning the subjects for each phase of testing (Phases 1, 3a, 4, 5 and 6). Each volunteer is cooled using contact-cooling pads (Arctic Sun Energy Transfer Pads™, Medivance, Inc., Louisville, Colo., U.S.A.). Contact-cooling pads are applied to contact the subjects, and water at a controlled temperature is delivered to and circulated through the contact pads to effect the controlled cooling of each volunteer.
Five contact-cooling pads are applied to the thighs, back and abdomen of each subjects, and actively cooled. The pads cover and contact about 0.6 square meter of the subject's exterior body surface area, which is the area in heat transfer communication between the pads and the subject's body. Temperatures are measured in the same manner as in Phase 1 except that the rectal temperature probe is connected to a control module and the rectal temperature signal is used by the control module to adjust inlet water temperature via a feedback control algorithm to achieve a target core body temperature of 34.5° C.
A single oral dose of acetaminophen (1000 mg), is administered within 20 minutes prior to treatment. A bolus of IV meperidine (Demerol®, 50-100 mg) is given within 5 minutes of the start of active cooling. Additional doses of meperidine are administered to maintain comfort and to prevent shivering. Active cooling and maintenance of hypothermia continues for five hours. As in the Phase 1, the subjects are actively re-warmed to a tympanic and rectal temperatures of at least of 36° C. prior to termination of the experiment. Shivering, comfort, oxyhemoglobin saturation, and arterial blood pressure are recorded as in Phase 1.
Phase 5 Phase 5 proceeds as described for Phase 3a, except as noted. The temperature of water circulated to the contact-cooling pads is controlled to achieve a target core body temperature of 34.5° C. In addition to meperidine (Demerol®), subjects are also given an IV dose of 8 mg ondansetron (hydrochloride salt, Glaxo Wellcome). […]

Series [3] relates to healthy subjects. As to the kind of experiment: Phase 1: cooling of healthy subjects with contact-cooling pads under meperidine. Type of series: in vivo, human. The procedure:
Four contact pads are applied to the thighs and chest of each subject and each subject is rapidly cooled with an objective of reducing core body temperature to 34-35° C. Core body temperatures are measured at the tympanic membrane and the rectum. Mean skin-surface temperature is determined from the weighted average of calf, thigh, chest, and upper arm skin temperatures. Thermoregulatory vasoconstriction is evaluated using forearm minus fingertip skin-temperature gradients. Temperatures are measured using Mon-a-Therm™ themocouple probes connected to Mallinckrodt Model 6510 two-channel electronic thermometers having an accuracy near 0.1° C. (Mallinckrodt Anesthesia Products, St. Louis, Mo., U.S.A.). Temperatures are recorded before cooling is started (i.e., baseline) and subsequently at 15-minute intervals.
Each of subjects 1-5 is administered a single dose of acetomiophen (1000 mg) within 20 minutes prior to treatment and is administered a bolus of intravenous (IV) meperidine (Demerol®, 25-75 mg) within 5 minutes of the start of cooling. Subjects also receive initial doses of chlorpromazine (Thorazine®, 12.5-25 mg, IV). Active cooling is initiated and the inlet water temperature is controlled to achieve a target tympanic temperature between 34° C. and 35° C. Additional doses of meperidine and/or chloropromazine are administered to maintain comfort and to prevent shivering. Active cooling and maintenance of hypothermia continues for up to five hours, after which subjects are actively re-warmed to tympanic and rectal temperatures of at least 36° C.
The presence of shivering is noted by physical examination, electromyographic artifact on continuous electrocardiography (ECG), or by subject report. Overall thermal comfort is evaluated at 15-min intervals with a 100-mm-long visual analog scale (VAS) on which 0 mm defines the worst imaginable cold, 50 mm identifies thermal neutrality, and 100 mm indicates unbearable heat. A new, unmarked scale is used for each assessment. Heart rate and oxyhemoglobin saturation are monitored using ECG and pulse oximetry; arterial blood pressure is recorded oscillometrically at 15-minute intervals.

In series [4] the test system is healthy subjects. In words: Phase 3a: cooling with five contact-cooling pads under meperidine. The series is classed as in vivo, human.
Source text: as §1
Series [5] deals with healthy subjects. In words: Phase 5: cooling under meperidine plus IV ondansetron. Type of series: in vivo, human.
Series [6] deals with healthy subjects. In words: Subsequent test similar to Phase 5 with supplemental ondansetron dose. As to conditions: one subject; ondansetron 8 mg initial dose and 8 mg supplemental dose 3.5 hours later. Type of series: in vivo, human. As to the method: Moreover, during a subsequent test conducted in a manner similar to that described for Phase 5, a subject is administered an initial dose of 8 mg of the ondansetron followed by a supplemental dose of 8 mg of the ondansetron administered 3.5 hours later.

The mark [7] stands for this setting: meperidine plus buspirone, mean of 4 subjects.
[8] abbreviates: meperidine, ondansetron and magnesium sulfate, mean of 8 subjects.
Where [9] appears, read: meperidine regimen, mean of 5 subjects.
The mark [10] stands for this setting: Phase 3a, meperidine regimen, individual subjects.
Where [11] appears, read: Phase 3a, meperidine regimen, mean of 5 subjects.
The mark [12] stands for this setting: Phase 5, meperidine plus ondansetron, mean of 6 subjects.

The structures appear in SMILES notation. Values joined by “and” are separate entries in the source; they are usually repeats but may differ in a detail not shown here. Equal entries are not always repeated. Where two headings read alike, the source gives them in different places.

Consider `O=C1CC2(CCCC2)CC(=O)N1CCCCN1CCN(c2ncccn2)CC1` [buspirone], for which, in the series with healthy subjects [1] (setting [7]), the “Cooling rate to 35° C., Mean ± SD” value is listed as 1.2 ± 0.4 ° C./hr and the “Time to 35° C., Mean ± SD” value came to 109 ± 40 min. Moreover, the “effect on incidence of nausea” value in the series on healthy subjects [1] (oral buspirone 30-60 mg with meperidine, four subjects) is on record as “did not reduce the incidence of nausea”.
As for `O=S(=O)([O-])[O-].[Mg+2]` [magnesium sulfate], in the series on healthy subjects [2] (early stages of cooling), the “indications of vasodilation (Tdig being larger than Tfore)” value is “seven of eight subjects”. Moreover, in the series with healthy subjects [2] (setting [8]), the “Cooling rate to 35° C., Mean ± SD” value is recorded as 1.3 ± 0.4 ° C./hr and the “Time to 35° C., Mean ± SD” value came out at 86 ± 23 min.
Regarding `CCOC(=O)C1(c2ccccc2)CCN(C)CC1` [meperidine], the “Time to 35° C.” value is 105 min and 78 min and 41 min and 82 min and 81 min with healthy subjects [3] (four contact pads, acetaminophen 1000 mg, IV meperidine 25-75 mg bolus plus additional doses, chlorpromazine, tympanic temperature, individual subjects); 64 min and 180 min and 94 min and 56 min and 46 min in the series on healthy subjects [4] (Phase 3a, five contact-cooling pads, oral acetaminophen 1000 mg, IV meperidine 50-100 mg bolus plus additional doses, tympanic temperature, individual subjects). In addition, the “Nausea or Vomiting During Treatment” value with healthy subjects [3] (meperidine regimen, individual subjects) is “None”; in the series with healthy subjects [4] (setting [10]) it was “Nausea end (2×) and None and Nausea early, end and Nausea, vomiting mid”. Besides, the “Cooling rate to 35° C., Mean ± SD” value with healthy subjects [3] (setting [9]) is 1.5±0.6 ° C./hr and 1.5 ± .6 ° C./hr; with healthy subjects [4] (setting [11]) it was 1.6 ± 0.5 ° C./hr. In addition, the “Time to 35° C., Mean ± SD” value in the series on healthy subjects [3] (setting [9]) turned out to be 77 ± 23 min; in the series on healthy subjects [4] (setting [11]), 88 ± 54 min. Also, the “Cooling rate to 35° C.” value in the series on healthy subjects [3] (meperidine regimen, tympanic temperature, individual subjects) was 1.0 ° C./hr and 1.5 ° C./hr and 2.6 ° C./hr and 1.2 ° C./hr and 1.4 ° C./hr; in the series on healthy subjects [4] (setting [10]), 1.9 ° C./hr (2×) and .9 ° C./hr and 1.2 ° C./hr and 2.1 ° C./hr. The Systolic blood pressure in the series on healthy subjects [4] (Phase 3a, 180 min timepoint, baseline 122±13, p=0.042) is reported as 140±20 mm Hg. In addition, the “change in heart rate, diastolic blood pressure, or blood oxygenation compared with baseline” value in the series with healthy subjects [4] (Phase 3a, all subjects, during cooling) is on record as “no statistically significant change”. Also, the respiratory compromise entry with healthy subjects [4] (Phases 1 and 3a) is recorded as “no respiratory compromise”. Further, the “nausea observed, share of subjects” value with healthy subjects [4] (Phases 1 and 3a pooled, all cases in Phase 3a) is recorded as 30 % of subjects. Besides, the “indications of vasodilation (Tdig being larger than Tfore)” value in the series with healthy subjects [4] (Phases 3a, 4 and 5 (no vasodilation drug), early stages of cooling) is listed as “only a few of the subjects”. Further, the allergic reaction result in the series on healthy subjects [5] (Phase 5, one subject withdrawn, facial rash) was “mild allergic reaction”.
As to `Cc1nccn1CC1CCc2c(c3ccccc3n2C)C1=O` (stereo not drawn) [ondansetron], the “Cumulative Heat Transfer From Subject, 5 Min” value in the series on healthy subjects [5] (Phase 5, 5 Min after initiation of cooling, gross values, corrected values approximately 15% smaller, individual subjects) is 53.91 kcal and 37.16 kcal and 48.61 kcal and 45.90 kcal and 44.85 kcal. Besides, the “Cumulative Heat Transfer From Subject, 10 Min” value in the series on healthy subjects [5] (Phase 5, 10 Min after initiation of cooling, gross values, individual subjects) is 96.81 kcal and 73.79 kcal and 84.78 kcal and 82.99 kcal and 79.01 kcal. In addition, in the series with healthy subjects [5] (Phase 5, 15 Min after initiation of cooling, gross values, individual subjects), the “Cumulative Heat Transfer From Subject, 15 Min” value is 136.59 kcal and 109.68 kcal and 124.12 kcal and 118.51 kcal and 111.35 kcal. Besides, the “Cumulative Heat Transfer From Subject, 20 Min” value in the series on healthy subjects [5] (Phase 5, 20 Min after initiation of cooling, gross values, individual subjects) was 175.59 kcal and 142.73 kcal and 163.01 kcal and 151.96 kcal and 142.43 kcal. Further, the “Cumulative Heat Transfer From Subject, 25 Min” value in the series with healthy subjects [5] (Phase 5, 25 Min after initiation of cooling, gross values, individual subjects) is 214.2 kcal and 169.85 kcal and 200.85 kcal and 184.79 kcal and 172.00 kcal. Further, the “Cumulative Heat Transfer From Subject, 30 Min” value in the series with healthy subjects [5] (Phase 5, 30 Min after initiation of cooling, gross values, individual subjects) was 252.02 kcal and 184.74 kcal and 239.02 kcal and 218.02 kcal and 201.44 kcal. For the same molecule, in the series with healthy subjects [5] (Phase 5, 45 Min after initiation of cooling, gross values, individual subjects), the “Cumulative Heat Transfer From Subject, 45 Min” value is 360.32 kcal and 205.19 kcal and 354.67 kcal and 309.30 kcal and 282.20 kcal. Further, the “Cumulative Heat Transfer From Subject, 60 Min” value in the series on healthy subjects [5] (Phase 5, 60 Min after initiation of cooling, gross values, individual subjects) is 466.28 kcal and 212.94 kcal and 467.30 kcal and 346.56 kcal and 353.28 kcal. Moreover, in the series with healthy subjects [5] (Phase 5, 75 Min after initiation of cooling, gross values, individual subjects), the “Cumulative Heat Transfer From Subject, 75 Min” value is 567.71 kcal and 284.94 kcal and 574.88 kcal and 361.63 kcal and 423.43 kcal. Besides, the “Cumulative Heat Transfer From Subject, 90 Min” value in the series with healthy subjects [5] (Phase 5, 90 Min after initiation of cooling, gross values, individual subjects) was 667.78 kcal and 348.14 kcal and 676.99 kcal and 367.39 kcal and 436.35 kcal. For the same molecule, the “Cumulative Heat Transfer From Subject, 105 Min” value in the series on healthy subjects [5] (Phase 5, 105 Min after initiation of cooling, gross values, individual subjects) is 767.83 kcal and 375.85 kcal and 708.76 kcal and 366.43 kcal and 458.46 kcal. Moreover, in the series with healthy subjects [5] (Phase 5, 120 Min after initiation of cooling, gross values, individual subjects), the “Cumulative Heat Transfer From Subject, 120 Min” value was 867.73 kcal and 407.01 kcal and 733.20 kcal and 368.56 kcal and 457.78 kcal. The “effect on incidence of nausea and vomiting” value in the series on healthy subjects [5] (Phase 5, IV ondansetron 8 mg with meperidine, relative to Phases 3a and 4) is “reduces the incidence of nausea and vomiting”. Moreover, in the series with healthy subjects [5] (Phase 5, as Phase 3a (meperidine) plus IV ondansetron 8 mg, individual subjects), the “Time to 35° C.” value is 58 min and 88 min and 310 min and 189 min and 60 min and 80 min. The “Cooling rate to 35° C.” value in the series on healthy subjects [5] (Phase 5, meperidine plus IV ondansetron 8 mg, individual subjects) was 1.4 ° C./hr and 1.6 ° C./hr and 0.5 ° C./hr and 0.6 ° C./hr and 1.9 ° C./hr and 1.5 ° C./hr. In the series on healthy subjects [5] (setting [12]), the “Cooling rate to 35° C., Mean ± SD” value is 1.3 ° C./hr and 1.3 ± 0.6 ° C./hr; the “Time to 35° C., Mean ± SD” value was found to be 131 ± 100 min. The “meperidine administration relative to Phase 3a” value in the series on healthy subjects [5] (Phase 5, p=0.26, t-test) is reported as “trend toward less meperidine administration”. Further, in the series with healthy subjects [5] (Phase 5 versus Phases 1, 3a and 4), the mean comfort score result is “higher”. Further, in the series on healthy subjects [6], the nausea result is listed as “does not experience nausea”.
